Where “and” joins values, the source holds several entries; their conditions need not be identical. Equal values may be shown once. Peptide text beside a SMILES is read from it.
Tests used:
Format in all cases: cell-based
[1] = system: Erwinia amylovora PMV6076; test: Antibacterial activity (MIC), in vitro growth inhibition; settings: Table S1, MIC range
Method: (§1) Erwinia amylovora PMV6076 (Institut National de la Recherche Agronomique, Angers, France), Pseudomonas syringae pv. syringae EPS94 (Institut de Tecnologia Agroalimentària, Universitat de Girona, Spain), and Xanthomonas axonopodis pv. vesicatoria 2133-2 (Instituto Valenciano de Investigaciones Agrarias, Valencia, Spain) were used as bacterial strains. They were stored and cultivated as previously described.
(§2) The minimum inhibitory concentration (MIC) was analyzed as previously described at 0.8, 1.6, 3.1, 6.2, 12.5, 25 and 50 μM [20].

[2] = system: Pseudomonas syringae pv. syringae EPS94; test: as above; settings: Table S1, MIC range
Method: as §1, §2

[3] = system: Xanthomonas axonopodis pv. vesicatoria 2133-2; settings: Table S1, MIC range
Method: as §1, §2

[4] = system: erythrocyte suspensions of human blood; test: Hemolytic activity, hemoglobin release; settings: human blood erythrocytes 5% v/v, absorbance 540 nm, percentage compared to melittin, three replicates; for Hemolysis (%) at 50 µM: peptide 50 μM (table prints 50 µM); for Hemolysis (%) at 125 µM: peptide 125 μM (table prints 125 µM)
Method: The hemolytic activity of the compounds was evaluated at 50 and 125 μM by determining hemoglobin release from erythrocyte suspensions of human blood (5% v/v) (Oxoid) using absorbance at 540 nm, as previously described. Three replicates for each peptide concentration were used.

Structure (SMILES) | MIC Ea [1] [µM] | MIC Pss [2] [µM] | MIC Xav [3] [µM] | Hemolysis (%) at 50 µM [4] [%] | Hemolysis (%) at 125 µM [4]
CC(C)C[C@@H]1NC(=O)[C@H](CCCCN)NC(=O)[C@H](CCCCN)NC(=O)[C@H](Cc2c[nH]c3ccccc23)NC(=O)[C@H](CC(C)C)NC(=O)[C@H](CCCCN)NC(=O)[C@H](CC(C)C)NC(=O)[C@H](CCCCN)NC(=O)[C@H](CCCCN)NC(=O)[C@H](CCC(N)=O)NC1=O [BPC082W, c(KKLKLWKKLQ)] (cyclo(KKLKLWKKLQ)) | 12.5 to 25 | 6.2 to 12.5 | 1.6 to 3.1 | 26 | 34%
CC(C)C[C@@H]1NC(=O)[C@H](CCCCN)NC(=O)[C@H](CCCCN)NC(=O)[C@H](Cc2c[nH]c3ccccc23)NC(=O)[C@H](CC(C)C)NC(=O)[C@H](CCCCN)NC(=O)[C@H](CCCCN)NC(=O)[C@H](CC(C)C)NC(=O)[C@H](CCCCN)NC(=O)[C@H](CCC(N)=O)NC1=O [BPC084W, c(KLKKLWKKLQ)] (cyclo(KKLQKLKKLW)) | 12.5 to 25 | 12.5 to 25 | 1.6 to 3.1 | 54 | 60%
CC(C)C[C@@H]1NC(=O)[C@H](CCC(N)=O)NC(=O)[C@H](CC(C)C)NC(=O)[C@H](CCCCN)NC(=O)[C@H](CCCCN)NC(=O)[C@H](Cc2c[nH]c3ccccc23)NC(=O)[C@H](CC(C)C)NC(=O)[C@H](CCCCN)NC(=O)[C@H](CCCCN)NC(=O)[C@H](CCCCN)NC1=O [BPC086W, c(LKKKLWKKLQ)] (cyclo(KKKLWKKLQL)) | 6.2 to 12.5 | 3.1 to 6.2 | 0.8 to 1.6 | 4 | 8% and ≤ 8%
CC(C)C[C@@H]1NC(=O)[C@H](CCCCN)NC(=O)[C@H](CCCCN)NC(=O)[C@H](Cc2c[nH]c3ccccc23)NC(=O)[C@H](CCCCN)NC(=O)[C@H](CC(C)C)NC(=O)[C@H](CC(C)C)NC(=O)[C@H](CCCCN)NC(=O)[C@H](CCCCN)NC(=O)[C@H](CCC(N)=O)NC1=O [BPC088W, c(KKLLKWKKLQ)] (cyclo(KKLLKWKKLQ)) | 12.5 to 25 | 6.2 to 12.5 | 1.6 to 3.1 | 14 | 19%
CC(C)C[C@@H]1NC(=O)[C@H](CCCCN)NC(=O)[C@H](CCCCN)NC(=O)[C@H](Cc2c[nH]c3ccccc23)NC(=O)[C@H](CCCCN)NC(=O)[C@H](CC(C)C)NC(=O)[C@H](CCCCN)NC(=O)[C@H](CC(C)C)NC(=O)[C@H](CCCCN)NC(=O)[C@H](CCC(N)=O)NC1=O [BPC090W, c(KLKLKWKKLQ)] (cyclo(KKLQKLKLKW)) | 12.5 to 25 | 6.2 to 12.5 | 1.6 to 3.1 | 9 | 15%
CC(C)C[C@@H]1NC(=O)[C@H](CCCCN)NC(=O)[C@H](CCCCN)NC(=O)[C@H](Cc2c[nH]c3ccccc23)NC(=O)[C@H](CCCCN)NC(=O)[C@H](CCCCN)NC(=O)[C@H](CC(C)C)NC(=O)[C@H](CC(C)C)NC(=O)[C@H](CCCCN)NC(=O)[C@H](CCC(N)=O)NC1=O [BPC094W, c(KLLKKWKKLQ)] (cyclo(KKLQKLLKKW)) | 25 to 50 | 6.2 to 12.5 | 3.1 to 6.2 | 35 | 42%
CC(C)C[C@@H]1NC(=O)[C@H](CCCCN)NC(=O)[C@H](CC(C)C)NC(=O)[C@H](CCC(N)=O)NC(=O)[C@H](CC(C)C)NC(=O)[C@H](CCCCN)NC(=O)[C@H](CCCCN)NC(=O)[C@H](Cc2c[nH]c3ccccc23)NC(=O)[C@H](CCCCN)NC(=O)[C@H](CCCCN)NC1=O [BPC096W, c(LKLKKWKKLQ)] (cyclo(KKLQLKLKKW)) | 12.5 to 25 | 6.2 to 12.5 | 1.6 to 3.1 | 10 | 15%
CC(C)C[C@@H]1NC(=O)[C@H](CCCCN)NC(=O)[C@H](CCCCN)NC(=O)[C@H](Cc2c[nH]c3ccccc23)NC(=O)[C@H](CCCCN)NC(=O)[C@H](CCCCN)NC(=O)[C@H](CCCCN)NC(=O)[C@H](CC(C)C)NC(=O)[C@H](CC(C)C)NC(=O)[C@H](CCC(N)=O)NC1=O [BPC098W, c(LLKKKWKKLQ)] (cyclo(KKKWKKLQLL)) | 12.5 to 25 | 3.1 to 6.2 | 1.6 to 3.1 | 12 | 18% and below 20%
CC(C)C[C@@H]1NC(=O)[C@H](CCCCN)NC(=O)[C@H](CCCCN)NC(=O)[C@H](CCCCN)NC(=O)[C@H](CCC(N)=O)NC(=O)[C@H](CCCCN)NC(=O)[C@H](CC(C)C)NC(=O)[C@H](CC(C)C)NC(=O)[C@H](Cc2c[nH]c3ccccc23)NC(=O)[C@H](CCCCN)NC1=O [BPC102W, c(KKKLKWLLKQ)] (cyclo(KKKLKWLLKQ)) | 12.5 to 25 | 3.1 to 6.2 | 6.2 to 12.5 | 12 | 17%
CC(C)C[C@@H]1NC(=O)[C@H](CCCCN)NC(=O)[C@H](CCCCN)NC(=O)[C@H](CCC(N)=O)NC(=O)[C@H](CCCCN)NC(=O)[C@H](CC(C)C)NC(=O)[C@H](CC(C)C)NC(=O)[C@H](Cc2c[nH]c3ccccc23)NC(=O)[C@H](CCCCN)NC(=O)[C@H](CCCCN)NC1=O [BPC104W, c(KKLKKWLLKQ)] (cyclo(KKLKKWLLKQ)) | 12.5 to 25 | 6.2 to 12.5 | 6.2 to 12.5 | 2 | 3%
CC(C)C[C@@H]1NC(=O)[C@H](CCCCN)NC(=O)[C@H](CCC(N)=O)NC(=O)[C@H](CCCCN)NC(=O)[C@H](CC(C)C)NC(=O)[C@H](CC(C)C)NC(=O)[C@H](Cc2c[nH]c3ccccc23)NC(=O)[C@H](CCCCN)NC(=O)[C@H](CCCCN)NC(=O)[C@H](CCCCN)NC1=O [BPC106W, c(KLKKKWLLKQ)] (cyclo(KKKWLLKQKL)) | 25 to 50 | 3.1 to 6.2 | 3.1 to 6.2 | 2 | 2%
CC(C)C[C@@H]1NC(=O)[C@H](CCC(N)=O)NC(=O)[C@H](CCCCN)NC(=O)[C@H](CC(C)C)NC(=O)[C@H](CC(C)C)NC(=O)[C@H](Cc2c[nH]c3ccccc23)NC(=O)[C@H](CCCCN)NC(=O)[C@H](CCCCN)NC(=O)[C@H](CCCCN)NC(=O)[C@H](CCCCN)NC1=O [BPC108W, c(LKKKKWLLKQ)] (cyclo(KKKKWLLKQL)) | 6.2 to 12.5 | 1.6 to 3.1 | 1.6 to 3.1 | 4 | 5% and ≤ 8%
CC(C)C[C@@H]1NC(=O)[C@H](CCCCN)NC(=O)[C@H](Cc2c[nH]c3ccccc23)NC(=O)[C@H](CC(C)C)NC(=O)[C@H](CC(C)C)NC(=O)[C@H](CCCCN)NC(=O)[C@H](CCCCN)NC(=O)[C@H](CCCCN)NC(=O)[C@H](CCC(N)=O)NC(=O)[C@H](CCCCN)NC1=O [BPC110W, c(KKKLLWKLKQ)] (cyclo(KKKLLWKLKQ)) | 12.5 to 25 | 3.1 to 6.2 | 6.2 to 12.5 | 3 | 4%
CC(C)C[C@@H]1NC(=O)[C@H](CCCCN)NC(=O)[C@H](CCC(N)=O)NC(=O)[C@H](CCCCN)NC(=O)[C@H](CC(C)C)NC(=O)[C@H](CCCCN)NC(=O)[C@H](Cc2c[nH]c3ccccc23)NC(=O)[C@H](CC(C)C)NC(=O)[C@H](CCCCN)NC(=O)[C@H](CCCCN)NC1=O [BPC114W, c(KLKKLWKLKQ)] (cyclo(KKLWKLKQKL)) | 12.5 to 25 | 3.1 to 6.2 | 1.6 to 3.1 | 29 | 38%
CC(C)C[C@@H]1NC(=O)[C@H](CCC(N)=O)NC(=O)[C@H](CCCCN)NC(=O)[C@H](CC(C)C)NC(=O)[C@H](CCCCN)NC(=O)[C@H](Cc2c[nH]c3ccccc23)NC(=O)[C@H](CC(C)C)NC(=O)[C@H](CCCCN)NC(=O)[C@H](CCCCN)NC(=O)[C@H](CCCCN)NC1=O [BPC116W, c(LKKKLWKLKQ)] (cyclo(KKKLWKLKQL)) | 12.5 to 25 | 3.1 to 6.2 | 3.1 to 6.2 | 9 | 14%
CC(C)C[C@@H]1NC(=O)[C@H](CCCCN)NC(=O)[C@H](Cc2c[nH]c3ccccc23)NC(=O)[C@H](CCCCN)NC(=O)[C@H](CC(C)C)NC(=O)[C@H](CC(C)C)NC(=O)[C@H](CCCCN)NC(=O)[C@H](CCCCN)NC(=O)[C@H](CCC(N)=O)NC(=O)[C@H](CCCCN)NC1=O [BPC118W, c(KKLLKWKLKQ)] (cyclo(KKLLKWKLKQ)) | 12.5 to 25 | 6.2 to 12.5 | 12.5 to 25 | 4 | 4%
CC(C)C[C@@H]1NC(=O)[C@H](CCC(N)=O)NC(=O)[C@H](CCCCN)NC(=O)[C@H](CC(C)C)NC(=O)[C@H](CCCCN)NC(=O)[C@H](Cc2c[nH]c3ccccc23)NC(=O)[C@H](CCCCN)NC(=O)[C@H](CC(C)C)NC(=O)[C@H](CCCCN)NC(=O)[C@H](CCCCN)NC1=O [BPC120W, c(LKKLKWKLKQ)] (cyclo(KKLKWKLKQL)) | 12.5 to 25 | 3.1 to 6.2 | 1.6 to 3.1 | 6 | 9% and below 20%
